# According to PubChem BioAssay (NCI):
#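 48-hour exposure; five concentrations; linearly interpolated endpoints. TGI: concentration producing complete growth inhibition.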
# Assays:
# Assay in all cases: NCI anticancer screen, dose series, 48 h
# 786-0 renal = tested on: 786-0 renal
# A498 renal = tested on: A498 renal
# A549 NSCLC = tested on: A549 NSCLC
# ACHN renal = tested on: ACHN renal
# BT-549 breast = tested on: BT-549 breast
# CAKI-1 renal = tested on: CAKI-1 renal
# CCRF-CEM leukemia = tested on: CCRF-CEM leukemia
# COLO 205 colon = tested on: COLO 205 colon
# DLD-1 colon = tested on: DLD-1 colon
# DMS 114 small cell lung = tested on: DMS 114 small cell lung
# DMS 273 small cell lung = tested on: DMS 273 small cell lung
# DU-145 prostate = tested on: DU-145 prostate
# EKVX NSCLC = tested on: EKVX NSCLC
# HCC-2998 colon = tested on: HCC-2998 colon
# HCT-116 colon = tested on: HCT-116 colon
# HCT-15 colon = tested on: HCT-15 colon
# HL-60(TB) leukemia = tested on: HL-60(TB) leukemia
# HOP-18 NSCLC = tested on: HOP-18 NSCLC
# HOP-62 NSCLC = tested on: HOP-62 NSCLC
# HOP-92 NSCLC = tested on: HOP-92 NSCLC
# HS 578T breast = tested on: HS 578T breast
# HT29 colon = tested on: HT29 colon
# IGROV1 ovarian = tested on: IGROV1 ovarian
# K-562 leukemia = tested on: K-562 leukemia
# KM12 colon = tested on: KM12 colon
# KM20L2 colon = tested on: KM20L2 colon
# LOX IMVI melanoma = tested on: LOX IMVI melanoma
# LXFL 529 NSCLC = tested on: LXFL 529 NSCLC
# M14 melanoma = tested on: M14 melanoma
# M19-MEL melanoma = tested on: M19-MEL melanoma
# MALME-3M melanoma = tested on: MALME-3M melanoma
# MCF7 breast = tested on: MCF7 breast
# MDA-MB-231 breast = tested on: MDA-MB-231 breast
# MDA-N = tested on: MDA-N
# MOLT-4 leukemia = tested on: MOLT-4 leukemia
# NCI-H226 lung = tested on: NCI-H226 lung
# NCI-H23 lung = tested on: NCI-H23 lung
# NCI-H460 lung = tested on: NCI-H460 lung
# NCI-H522 lung = tested on: NCI-H522 lung
# OVCAR-3 ovarian = tested on: OVCAR-3 ovarian
# OVCAR-4 ovarian = tested on: OVCAR-4 ovarian
# OVCAR-5 ovarian = tested on: OVCAR-5 ovarian
# OVCAR-8 ovarian = tested on: OVCAR-8 ovarian
# PC-3 prostate = tested on: PC-3 prostate
# RPMI-8226 leukemia = tested on: RPMI-8226 leukemia
# RXF 393 renal = tested on: RXF 393 renal
# RXF-631 renal = tested on: RXF-631 renal
# SF-268 CNS = tested on: SF-268 CNS
# SF-295 CNS = tested on: SF-295 CNS
# SF-539 CNS = tested on: SF-539 CNS
# SK-MEL-2 melanoma = tested on: SK-MEL-2 melanoma
# SK-MEL-28 melanoma = tested on: SK-MEL-28 melanoma
# SK-MEL-5 melanoma = tested on: SK-MEL-5 melanoma
# SK-OV-3 ovarian = tested on: SK-OV-3 ovarian
# SN12C renal = tested on: SN12C renal
# SNB-19 CNS = tested on: SNB-19 CNS
# SNB-75 CNS = tested on: SNB-75 CNS
# SNB-78 CNS = tested on: SNB-78 CNS
# SR leukemia = tested on: SR leukemia
# SW-620 colon = tested on: SW-620 colon
# T-47D breast = tested on: T-47D breast
# TK-10 renal = tested on: TK-10 renal
# U251 CNS = tested on: U251 CNS
# UACC-257 melanoma = tested on: UACC-257 melanoma
# UACC-62 melanoma = tested on: UACC-62 melanoma
# UO-31 renal = tested on: UO-31 renal
# XF 498 CNS = tested on: XF 498 CNS
smiles,measurement,setting,value
COc1cccc2c1C(=O)c1c(O)c3c(c(O)c1C2=O)C[C@@](O)(/C(C)=N\O)C[C@@H]3OC1CC(N)C(O)C(C)O1 (stereo partly specified),TGI,786-0 renal,11.1 µM
same,TGI,A498 renal,3.31 µM
same,TGI,A549 NSCLC,6.22 µM
same,TGI,ACHN renal,10.8 µM
same,TGI,BT-549 breast,5.65 µM
same,TGI,CAKI-1 renal,22.6 µM
same,TGI,CCRF-CEM leukemia,2.38 µM
same,TGI,COLO 205 colon,3.56 µM
same,TGI,DLD-1 colon,18.2 µM
same,TGI,DMS 114 small cell lung,2.58 µM
same,TGI,DMS 273 small cell lung,4.52 µM
same,TGI,DU-145 prostate,5.74 µM
same,TGI,EKVX NSCLC,19.5 µM
same,TGI,HCC-2998 colon,3.04 µM
same,TGI,HCT-116 colon,7.55 µM
same,TGI,HCT-15 colon,> 100 µM
same,TGI,HL-60(TB) leukemia,2.14 µM
same,TGI,HOP-18 NSCLC,7.26 µM
same,TGI,HOP-62 NSCLC,6.46 µM
same,TGI,HOP-92 NSCLC,7.31 µM
same,TGI,HS 578T breast,6.58 µM
same,TGI,HT29 colon,13.2 µM
same,TGI,IGROV1 ovarian,17.2 µM
same,TGI,K-562 leukemia,7.72 µM
same,TGI,KM12 colon,15.8 µM
same,TGI,KM20L2 colon,30.9 µM
same,TGI,LOX IMVI melanoma,6.06 µM
same,TGI,LXFL 529 NSCLC,7.11 µM
same,TGI,M14 melanoma,6.78 µM
same,TGI,M19-MEL melanoma,3.79 µM
same,TGI,MALME-3M melanoma,2.41 µM
same,TGI,MCF7 breast,9.97 µM
same,TGI,MDA-MB-231 breast,7.17 µM
same,TGI,MDA-N,5.83 µM
same,TGI,MOLT-4 leukemia,1.55 µM
same,TGI,NCI-H226 lung,7.52 µM
same,TGI,NCI-H23 lung,3.8 µM
same,TGI,NCI-H460 lung,8.16 µM
same,TGI,NCI-H522 lung,1.73 µM
same,TGI,OVCAR-3 ovarian,8.58 µM
same,TGI,OVCAR-4 ovarian,17.3 µM
same,TGI,OVCAR-5 ovarian,12.2 µM
same,TGI,OVCAR-8 ovarian,11.8 µM
same,TGI,PC-3 prostate,8.08 µM
same,TGI,RPMI-8226 leukemia,8.33 µM
same,TGI,RXF 393 renal,4.76 µM
same,TGI,RXF-631 renal,45.5 µM
same,TGI,SF-268 CNS,5.77 µM
same,TGI,SF-295 CNS,7.84 µM
same,TGI,SF-539 CNS,3.8 µM
same,TGI,SK-MEL-2 melanoma,2.48 µM
same,TGI,SK-MEL-28 melanoma,3.98 µM
same,TGI,SK-MEL-5 melanoma,2.29 µM
same,TGI,SK-OV-3 ovarian,11.7 µM
same,TGI,SN12C renal,13.1 µM
same,TGI,SNB-19 CNS,8.93 µM
same,TGI,SNB-75 CNS,2.54 µM
same,TGI,SNB-78 CNS,8.2 µM
same,TGI,SR leukemia,2.97 µM
same,TGI,SW-620 colon,10.3 µM
same,TGI,T-47D breast,11 µM
same,TGI,TK-10 renal,37.2 µM
same,TGI,U251 CNS,7.73 µM
same,TGI,UACC-257 melanoma,6.02 µM
same,TGI,UACC-62 melanoma,2.94 µM
same,TGI,UO-31 renal,49.2 µM
same,TGI,XF 498 CNS,0.951 µM
Cc1ccc(N(C(=O)CC(=O)N2N=C(c3ccccc3)C(N=Nc3ccc([N+](=O)[O-])cc3)C2=O)C(=O)c2ccc(Cl)cc2)cc1 (stereo unspecified),TGI,786-0 renal,30.5 µM
same,TGI,A498 renal,36.9 µM
same,TGI,A549 NSCLC,> 51.8 µM
same,TGI,ACHN renal,> 100 µM
same,TGI,CAKI-1 renal,> 76.8 µM
same,TGI,CCRF-CEM leukemia,> 30.9 µM
same,TGI,COLO 205 colon,10.4 µM
same,TGI,DLD-1 colon,> 55.9 µM
same,TGI,DMS 114 small cell lung,> 51.1 µM
same,TGI,DMS 273 small cell lung,20.3 µM
same,TGI,EKVX NSCLC,> 100 µM
same,TGI,HCC-2998 colon,> 100 µM
same,TGI,HCT-116 colon,22.4 µM
same,TGI,HCT-15 colon,> 48.6 µM
same,TGI,HL-60(TB) leukemia,> 56.5 µM
same,TGI,HOP-18 NSCLC,> 85.6 µM
same,TGI,HOP-62 NSCLC,29.8 µM
same,TGI,HOP-92 NSCLC,56.5 µM
same,TGI,HT29 colon,> 53 µM
same,TGI,IGROV1 ovarian,45.9 µM
same,TGI,K-562 leukemia,> 71.3 µM
same,TGI,KM12 colon,> 78.9 µM
same,TGI,KM20L2 colon,> 100 µM
same,TGI,LOX IMVI melanoma,15.7 µM
same,TGI,LXFL 529 NSCLC,> 52.9 µM
same,TGI,M14 melanoma,18.4 µM
same,TGI,M19-MEL melanoma,> 53.9 µM
same,TGI,MALME-3M melanoma,> 100 µM
same,TGI,MOLT-4 leukemia,> 100 µM
same,TGI,NCI-H226 lung,> 94.8 µM
same,TGI,NCI-H23 lung,28.2 µM
same,TGI,NCI-H460 lung,> 47.8 µM
same,TGI,NCI-H522 lung,9.76 µM
same,TGI,OVCAR-3 ovarian,> 91.6 µM
same,TGI,OVCAR-4 ovarian,> 100 µM
same,TGI,OVCAR-5 ovarian,> 45.3 µM
same,TGI,OVCAR-8 ovarian,38.3 µM
same,TGI,RPMI-8226 leukemia,> 59.1 µM
same,TGI,RXF 393 renal,10.9 µM
same,TGI,SF-268 CNS,35.4 µM
same,TGI,SF-295 CNS,25.6 µM
same,TGI,SF-539 CNS,35.6 µM
same,TGI,SK-MEL-2 melanoma,> 62.4 µM
same,TGI,SK-MEL-28 melanoma,> 100 µM
same,TGI,SK-MEL-5 melanoma,84.8 µM
same,TGI,SK-OV-3 ovarian,32.2 µM
same,TGI,SN12C renal,> 81.1 µM
same,TGI,SNB-19 CNS,60.1 µM
same,TGI,SNB-75 CNS,39.1 µM
same,TGI,SNB-78 CNS,> 100 µM
same,TGI,SR leukemia,23.1 µM
same,TGI,SW-620 colon,> 59.6 µM
same,TGI,TK-10 renal,> 51.4 µM
same,TGI,U251 CNS,23.7 µM
same,TGI,UACC-257 melanoma,> 72.7 µM
same,TGI,UACC-62 melanoma,> 100 µM
same,TGI,UO-31 renal,> 100 µM
same,TGI,XF 498 CNS,52.2 µM
COc1ccc(S(=O)(=O)N/N=C(\C)CN2C(=O)c3ccccc3C2=O)cc1,TGI,786-0 renal,> 100 µM
same,TGI,A498 renal,> 100 µM
same,TGI,A549 NSCLC,> 100 µM
same,TGI,ACHN renal,> 100 µM
same,TGI,CAKI-1 renal,> 100 µM
same,TGI,CCRF-CEM leukemia,> 100 µM
same,TGI,COLO 205 colon,> 100 µM
same,TGI,DLD-1 colon,> 100 µM
same,TGI,DMS 114 small cell lung,> 100 µM
same,TGI,DMS 273 small cell lung,> 100 µM
same,TGI,EKVX NSCLC,> 100 µM
same,TGI,HCC-2998 colon,> 100 µM
same,TGI,HCT-116 colon,> 100 µM
same,TGI,HCT-15 colon,> 100 µM
same,TGI,HL-60(TB) leukemia,> 100 µM
same,TGI,HOP-18 NSCLC,> 100 µM
same,TGI,HOP-62 NSCLC,> 100 µM
same,TGI,HT29 colon,> 100 µM
same,TGI,IGROV1 ovarian,> 100 µM
same,TGI,K-562 leukemia,> 100 µM
same,TGI,KM12 colon,> 100 µM
same,TGI,KM20L2 colon,> 100 µM
same,TGI,LOX IMVI melanoma,> 100 µM
same,TGI,LXFL 529 NSCLC,> 100 µM
same,TGI,M14 melanoma,> 100 µM
same,TGI,M19-MEL melanoma,> 100 µM
same,TGI,MALME-3M melanoma,> 100 µM
same,TGI,MOLT-4 leukemia,> 100 µM
same,TGI,NCI-H226 lung,> 100 µM
same,TGI,NCI-H23 lung,> 100 µM
same,TGI,NCI-H460 lung,> 100 µM
same,TGI,NCI-H522 lung,> 100 µM
same,TGI,OVCAR-3 ovarian,> 100 µM
same,TGI,OVCAR-4 ovarian,> 100 µM
same,TGI,OVCAR-5 ovarian,> 100 µM
same,TGI,OVCAR-8 ovarian,> 100 µM
same,TGI,RPMI-8226 leukemia,> 100 µM
same,TGI,RXF-631 renal,> 100 µM
same,TGI,SF-268 CNS,> 100 µM
same,TGI,SF-295 CNS,> 100 µM
same,TGI,SF-539 CNS,> 100 µM
same,TGI,SK-MEL-2 melanoma,> 100 µM
same,TGI,SK-MEL-28 melanoma,> 100 µM
same,TGI,SK-MEL-5 melanoma,> 100 µM
same,TGI,SK-OV-3 ovarian,> 100 µM
same,TGI,SN12C renal,> 100 µM
same,TGI,SNB-19 CNS,> 100 µM
same,TGI,SNB-75 CNS,> 100 µM
same,TGI,SNB-78 CNS,> 100 µM
same,TGI,SR leukemia,> 100 µM
same,TGI,SW-620 colon,> 100 µM
same,TGI,TK-10 renal,> 100 µM
same,TGI,U251 CNS,> 100 µM
same,TGI,UACC-257 melanoma,> 100 µM
same,TGI,UACC-62 melanoma,> 100 µM
same,TGI,UO-31 renal,> 100 µM
